Measured values from US12565475B2, “Small molecule compound inhibiting signal transmission path of TLR7 and TLR9 and use thereof” (AJOU UNIVERSITY INDUSTRY-ACADEMIC COOPERATION FOUNDATION, priority 2019, dated 2026).
Entries after “also recorded” stand apart in the source; their conditions may differ.

How the values were obtained:
Assay type in all cases: cell-based, murine
TLR2/6 = target: T1, TLR2/6 (Mus musculus, UniProt Q9EPW9+Q9QUN7); assay: TLR2/6-mediated TNF-α secretion (FSL-1), ELISA; conditions: RAW 264.7, 10 or 20 μM
T1 construct: endogenous in cells; host or cells: RAW 264.7
Procedure: (§1) Agonists specific to TLR1/TLR2 (Pam3CSK4), TLR2/TLR6 (FSL-1), TLR3 (Poly I:C), TLR7 (imiquimod), and TLR8 (TL8-506) were purchased from InvivoGen Ltd. (Hong-Kong, China), and a TLR4-specific agonist (LPS from E. coli O111:B4) was purchased from Sigma-Aldrich, Inc. For TLR9-specific stimulation, class C CpG-ODN (ODN2395, 5′-TCGTCGTTTTCGGCGCGCGCCG-3′) having full phosphorothioate backbone modification was synthesized (Bioneer, Inc., Daejeon, Korea). All TLR agonists were dissolved in deionized water and applied to a culture media for TLR activation. The cells were treated with test compounds or a control medium for 1 hour, and then stimulated with a TLR agonist for 4 hours, or 24 hours in the case of poly(I:C), and the cytokine secretion was monitored.
RAW 264.7 or differentiated THP-1 cell lines were seeded onto a 96-well culture plate at a density of 2×10^4 cells/well. The cells were treated with test compounds for 1 hour followed by the stimulation with TLR agonists for 4 hours. The supernatant was transferred to pre-coated assay plates, and the secretion levels of mouse and human TNF-α were measured by respective ELISA kits (Invitrogen, Carlsbad, CA, USA). […] Absorbance was measured by a microplate reader spectrophotometer (Molecular Devices, Inc., San Jose, CA, USA), and data was interpolated from a standard curve using SoftMax Pro 5.3 software (Molecular Devices, Inc.). […]

TLR7 = target: T2, TLR7 (Mus musculus, UniProt P58681); assay: TLR7-mediated TNF-α secretion (imiquimod stimulation), ELISA
T2 construct: endogenous in cells; host or cells: RAW 264.7
T2 sequence (P58681 27-1050): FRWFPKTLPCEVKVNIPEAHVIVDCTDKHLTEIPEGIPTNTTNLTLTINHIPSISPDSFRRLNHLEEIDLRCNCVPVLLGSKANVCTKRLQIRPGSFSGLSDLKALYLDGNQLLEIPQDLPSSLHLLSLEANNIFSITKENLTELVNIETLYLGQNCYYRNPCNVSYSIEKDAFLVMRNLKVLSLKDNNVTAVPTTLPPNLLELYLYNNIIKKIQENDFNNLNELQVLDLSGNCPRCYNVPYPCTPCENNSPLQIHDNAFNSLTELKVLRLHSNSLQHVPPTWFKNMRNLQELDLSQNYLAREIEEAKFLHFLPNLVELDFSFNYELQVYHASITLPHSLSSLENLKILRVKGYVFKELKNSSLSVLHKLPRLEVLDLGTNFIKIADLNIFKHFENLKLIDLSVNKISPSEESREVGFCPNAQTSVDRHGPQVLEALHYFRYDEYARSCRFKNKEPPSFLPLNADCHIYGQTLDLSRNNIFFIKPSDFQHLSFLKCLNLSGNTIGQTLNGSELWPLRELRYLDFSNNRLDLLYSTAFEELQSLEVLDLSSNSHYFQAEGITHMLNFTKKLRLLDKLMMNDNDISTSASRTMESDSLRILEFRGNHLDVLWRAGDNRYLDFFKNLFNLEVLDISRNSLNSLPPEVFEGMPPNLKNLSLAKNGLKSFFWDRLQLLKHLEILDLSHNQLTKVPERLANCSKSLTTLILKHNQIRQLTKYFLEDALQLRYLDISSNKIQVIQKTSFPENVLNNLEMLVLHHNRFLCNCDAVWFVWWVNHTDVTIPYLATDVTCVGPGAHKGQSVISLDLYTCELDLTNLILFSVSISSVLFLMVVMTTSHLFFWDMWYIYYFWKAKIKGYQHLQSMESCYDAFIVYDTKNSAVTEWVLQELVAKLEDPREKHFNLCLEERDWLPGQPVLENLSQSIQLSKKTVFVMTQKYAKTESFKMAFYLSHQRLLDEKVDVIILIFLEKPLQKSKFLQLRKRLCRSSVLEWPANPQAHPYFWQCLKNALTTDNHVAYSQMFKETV
Procedure: as §1
RAW 264.7 or differentiated THP-1 cell lines were seeded onto a 96-well culture plate at a density of 2×10^4 cells/well. The cells were treated with test compounds for 1 hour followed by the stimulation with TLR agonists for 4 hours. The supernatant was transferred to pre-coated assay plates, and the secretion levels of mouse and human TNF-α were measured by respective ELISA kits (Invitrogen, Carlsbad, CA, USA). All experiments were performed according to the manufacturer's instructions. Absorbance was measured by a microplate reader spectrophotometer (Molecular Devices, Inc., San Jose, CA, USA), and data was interpolated from a standard curve using SoftMax Pro 5.3 software (Molecular Devices, Inc.).
In order to evaluate the antagonistic effect of each compound on TLR7/TLR9 through ELISA (enzyme-linked immunosorbent assay), RAW 264.7 cells were pretreated with the eight compounds followed by the stimulation with a TLR7-specific agonist (imiquimod, 3.61 μM) or with a TLR9-specific agonist (ODN2395, 0.5 μM). […] Since the two ligands had no agonistic effect per se (FIG. 3B), the increased cytokine production may be due to cell activation (or non-specific cellular stress) by co-treatment. Consequently, TIC10 was selected as the most suitable lead for further optimization to improve the inhibitory potency against both TLR7 and TLR9.

[1] = system: phosphorylation of MAPK (JNK, p38-MAPK, ERK) and p65 subunit of NF-κB; assay: Western blot of NF-κB p65 and MAPK phosphorylation after ODN2395 stimulation; conditions: RAW 264.7, 20 μM, ODN2395 stimulation 15 min and 30 min
Procedure: RAW 264.7 cells were seeded into a 60 mm cell culture dish at a density of 2×10^6 cells/dish, and treated with test compounds followed by TLR agonists. The cell lysate was harvested through mammalian protein extraction kit (M-PER; Thermo Fisher Scientific, Inc.) with the protease and phosphatase inhibitor cocktail (Thermo Fisher Scientific, Inc.), and the protein levels were quantified using a bicinchoninic acid assay (Sigma-Aldrich, Co.). Protein samples were separated by SDS-PAGE and transferred to nitrocellulose membranes (GE Healthcare, Inc., Chicago, IL, USA). The membranes were incubated with primary antibodies specific to phospho-JNK (Cell Signaling Technology, Inc., Danvers, MA, USA), phospho-ERK (Santa Cruz Biotechnology, Inc., Dallas, TX, USA), phospho-p38-MAPK (Cell Signaling Technology, Inc.), phospho-p65 (Cell Signaling Technology, Inc.), or β-actin (Santa Cruz Biotechnology, Inc.). […] Protein levels were confirmed using a chemiluminescent substrate (SuperSignal™ West Pico PLUS, Thermo Fisher Scientific, Inc.) and a luminescence detection system (Fusion Solo S, VILBER, France).
In general, MYD88 recruitment by TLRs triggers the activation of the transcription factor NF-κB as well as the cell proliferation factor MAPK. […]

T1 sequence (Q9QUN7 25-784): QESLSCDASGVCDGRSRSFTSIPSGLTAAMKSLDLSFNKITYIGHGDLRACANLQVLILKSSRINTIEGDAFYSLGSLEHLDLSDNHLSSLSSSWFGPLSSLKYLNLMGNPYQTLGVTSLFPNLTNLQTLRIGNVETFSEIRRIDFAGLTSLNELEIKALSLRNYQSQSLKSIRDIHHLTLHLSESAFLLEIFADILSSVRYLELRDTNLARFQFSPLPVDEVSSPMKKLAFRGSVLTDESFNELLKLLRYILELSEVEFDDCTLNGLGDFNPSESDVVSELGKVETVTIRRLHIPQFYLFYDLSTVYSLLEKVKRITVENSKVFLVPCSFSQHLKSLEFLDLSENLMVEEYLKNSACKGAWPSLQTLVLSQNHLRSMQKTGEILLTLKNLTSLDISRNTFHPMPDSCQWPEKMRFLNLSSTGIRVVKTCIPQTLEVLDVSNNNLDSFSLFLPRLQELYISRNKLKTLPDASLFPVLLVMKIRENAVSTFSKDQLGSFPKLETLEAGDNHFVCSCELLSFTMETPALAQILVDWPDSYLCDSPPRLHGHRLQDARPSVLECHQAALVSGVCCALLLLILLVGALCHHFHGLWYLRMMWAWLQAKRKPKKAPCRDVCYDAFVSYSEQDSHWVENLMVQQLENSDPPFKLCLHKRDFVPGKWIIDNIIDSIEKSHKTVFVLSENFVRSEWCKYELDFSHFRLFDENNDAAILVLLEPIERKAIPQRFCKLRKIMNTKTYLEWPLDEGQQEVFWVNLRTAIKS
T1 sequence (Q9EPW9 28-795): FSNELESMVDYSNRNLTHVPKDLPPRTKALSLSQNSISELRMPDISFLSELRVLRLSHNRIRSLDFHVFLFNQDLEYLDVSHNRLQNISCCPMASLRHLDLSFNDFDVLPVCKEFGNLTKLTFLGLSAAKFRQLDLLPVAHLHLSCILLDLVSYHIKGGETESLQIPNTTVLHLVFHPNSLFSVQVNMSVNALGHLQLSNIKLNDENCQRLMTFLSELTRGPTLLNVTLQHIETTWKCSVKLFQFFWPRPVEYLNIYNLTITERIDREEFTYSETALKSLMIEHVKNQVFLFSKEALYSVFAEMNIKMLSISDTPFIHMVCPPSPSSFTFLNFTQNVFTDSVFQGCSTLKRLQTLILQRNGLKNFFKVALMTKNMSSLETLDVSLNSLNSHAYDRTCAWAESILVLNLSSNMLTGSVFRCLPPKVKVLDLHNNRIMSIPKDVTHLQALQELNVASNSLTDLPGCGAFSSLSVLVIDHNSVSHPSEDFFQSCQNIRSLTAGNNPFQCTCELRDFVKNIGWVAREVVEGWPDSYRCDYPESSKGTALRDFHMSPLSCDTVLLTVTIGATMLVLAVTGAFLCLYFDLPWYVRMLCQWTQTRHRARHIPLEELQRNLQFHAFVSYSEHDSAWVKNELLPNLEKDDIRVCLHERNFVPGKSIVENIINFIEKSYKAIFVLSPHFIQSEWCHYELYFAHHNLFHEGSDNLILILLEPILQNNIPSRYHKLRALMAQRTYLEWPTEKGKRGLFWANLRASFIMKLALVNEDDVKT

effect on TLR2/6-mediated cytokine (TNF-α) production (TLR2/6): no effect
TLR7-mediated TNF-α secretion (TLR7; RAW 264.7, 10 or 20 μM, imiquimod (receptor specificity, FIG. 6)): moderately reduced
IC50 (TLR7; RAW 264.7, imiquimod (FIG. 4D)): 6.79 µM
SMILES: COc1ccc(CNc2ncc(-c3ccc4c(c3)OCO4)n2C)c(OC)c1 [TIC10-7, 5-(2H-1,3-benzodioxol-5-yl)-N-[(2,4-dimethoxyphenyl)methyl]-1-methyl-1H-imidazol-2-amine]
inhibitory efficacy on TLR7-mediated TNF-α secretion (TLR7; RAW 264.7, 10 or 50 μM, imiquimod (FIG. 4B)): improved inhibitory efficacy compared to TIC10; also recorded: to a greater extent as compared to the other derivatives
phosphorylation of MAPK (JNK, p38-MAPK, and ERK) and the p65 subunit of NF-κB [1]: blocked the robust phosphorylation
